IC50 data for eleven compounds are collected here from patent publication EP4582426A1, “PAN-KRAS INHIBITOR COMPOUND” (Adlai Nortye Biopharma Co., Ltd., priority 2022, dated 2024).

The term IC50 denotes the concentration that inhibits the measured activity by half.

One test concerns SW480 (G12V). The test can be described thus: In vitro cell proliferation inhibition test (CellTiter-Glo Luminescent Cell Viability Assay). Format: cell-based. Conditions: SW480 cell line, Large intestine, Colon, KRAS (p.G12V), cells and compounds co-incubated 72 hours. From the text: (§1) Due to the diversity of RAS mutations and in order to evaluate the activity of compounds in different RAS mutant cell lines, we selected KRAS^WT, KRAS^G12C, KRAS^G12D), KRAS^G12V and BRAF mutant cell lines (see the table below) for in vitro activity evaluation and screening of compounds .
(§2) Experimental protocol: CellTiter-Glo® Cell Luminescent Viability Assay (Promega)
(§3) According to the doubling time of different cell lines, different numbers of cells (1000-5000 cells/well) were inoculated into 96-well plates containing 180 µl of the corresponding medium, and cultured overnight in a 37°C cell incubator containing 5% CO2. On the second day, the compound to be tested was pre-diluted 3-fold with the medium, the highest concentration was 100 µM, and there were 10 concentration gradients in total; then 20 µl of the medium containing different concentrations of the compound was added to the cells in the 96-well plate to ensure the final concentration of the compound to be up to 10 µM, with 10 concentration gradients of 3-fold dilutions. After co-incubating cells and compounds for 72 hours, the 96-well plate was taken out of the incubator, placed at room temperature for 30 minutes, and then 25 µl CellTiter-Glo® Reagent was added to each well to mix well, and incubated at room temperature for 10 minutes, and then 100 µl of the sample was transferred to a white 96-well plate (OptiPlateTM-96, PerkinElmer), the […] signal value was read using a multi-functional microplate reader (SpectraMax® i3x, Molecular devices). Subsequently, the signal value was standardized, and the four-parameter fitting regression equation was used for curve fitting to calculate the half maximal inhibitory concentration (IC50) of the compound on the cell line. Table 3: Antiproliferative activity of compounds of the present invention on KRAS cell mutants

For a further test, the system named is AsPC-1 (G12D). The description is as above. It counts as cell-based. Conditions: AsPC-1 cell line, Pancreas, KRAS (p.G12D), cells and compounds co-incubated 72 hours.
Text: as §1, §2, §3

For `CCn1c(-c2cc(C#Cc3ccccn3)cnc2[C@H](C)OC)c2c3cc(ccc31)-c1csc(n1)C[C@H](NC(=O)[C@H]1C[C@@H]1C)C(=O)N1CCC[C@H](N1)C(=O)OCC(C)(C)C2` [Example 16, (1S,2S)-N-((63S,4S,Z)-11-ethyl-12-(2-((S)-1-methoxyethyl)-5-(pyridin-2-ylethynyl)pyridin-3-yl)-10,10-dimethyl-5,7-dioxo-61,62,63,64,65,66-hexahydro-11H-8-oxa-2(4,2)-thiazola-1(5,3)-indola-6(1,3)-pyridazinacyclonecaphane-4-yl)-2-methylcyclopropane-1-carboxamide], the IC50 with SW480 (G12V) came to 28.8 nM; in the test with SW480 (G12V) (listed as 16') it was 584 nM; in the test on AsPC-1 (G12D), 38.8 nM; with AsPC-1 (G12D) (listed as 16'), 591 nM.

As to `CCn1c(-c2cc(C#Cc3cccnc3)cnc2C(C)OC)c2c3cc(ccc31)-c1csc(n1)CC(NC(=O)C1CC1C)C(=O)N1CCCC(N1)C(=O)OCC(C)(C)C2` [Example 17, (1S,2S)-N-((63S,4S,Z)-11-ethyl-12-(2-((S)-1-methoxyethyl)-5-(pyridin-3-ylethynyl)pyridin-3-yl)-10,10-dimethyl-5,7-dioxo-61,62,63,64,65,66-hexahydro-11H-8-oxa-2(4,2)-thiazola-1(5,3)-indola-6(1,3)-pyridazinacyclonecaphane-4-yl)-2-methylcyclopropane-1-carboxamide], the IC50 in the test with SW480 (G12V) came to 30.2 nM; in the test with SW480 (G12V) (listed as 17'), 474 nM; in the test with AsPC-1 (G12D), 37.8 nM; in the test on AsPC-1 (G12D) (listed as 17'), 700 nM.

In the case of `CCn1c(-c2cc(C#C[C@@H]3COCCN3C)cnc2[C@H](C)OC)c2c3cc(ccc31)-c1csc(n1)C[C@H](NC(=O)[C@H]1C[C@@H]1C)C(=O)N1CCC[C@H](N1)C(=O)OCC(C)(C)C2` [Example 28, (1S,2S)-N-((6^3S,4S,Z)-1^1-ethyl-1^2-(2-((S)-1-methoxyethyl)-5-(((R)-4-methylmorpholin-3-yl)ethynyl)pyridin-3-yl)-10,10-dimethyl-5,7-dioxo-6^1,6^2,6^3,6^4,6^5,6^6-hexahydro-1^1H-8-oxa-2(4,2)-thiazola-1(5,3)-indola-6(1,3)-pyridazinacycloundecaphane-4-yl)-2-methylcyclopropane-1-carboxamide], the IC50 amounted to 2.5 nM in the test with SW480 (G12V) and 1.9 nM with AsPC-1 (G12D).

`CCn1c(-c2cc(C#Cc3cncnc3N)cnc2C(C)OC)c2c3cc(ccc31)-c1csc(n1)CC(NC(=O)C1C(C)C1C)C(=O)N1CCCC(N1)C(=O)OCC(C)(C)C2` [Example 34, (1r,2R,3S)-N-((6^3S,4S,Z)-1^2-(5-((4-aminopyrimidin-5-yl)ethynyl)-2-((S)-1-methoxyethyl)pyridin-3-yl)-1^1-ethyl-10,10-dimethyl-5,7-dioxo-6^1,6^2,6^3,6^4,6^5,6^6-hexahydro-1^1H-8-oxa-2(4,2)-thiazola-1(5,3)-indola-6(1,3)-pyridazinacycloundecaphane-4-yl)-2,3-dimethylcyclopropane-1-carboxamide]: the IC50 is 0.75 nM in the test on SW480 (G12V) and 1.3 nM with AsPC-1 (G12D).

For `CCn1c(-c2cc(C#Cc3cnc(N)cn3)cnc2[C@H](C)OC)c2c3cc(ccc31)-c1csc(n1)C[C@H](NC(=O)[C@H]1C[C@@H]1C)C(=O)N1CCC[C@H](N1)C(=O)OCC(C)(C)C2` [Example 35, (1S,2S)-N-((6^3S,4S,Z)-1^2-(5-((5-aminopyrazin-2-yl)ethynyl)-2-((S)-1-methoxyethyl)pyridin-3-yl)-1^1-ethyl-10,10-dimethyl-5,7-dioxo-6^1,6^2,6^3,6^4,6^5,6^6-hexahydro-1^1H-8-oxa-2(4,2)-thiazola-1(5,3)-indola-6(1,3)-pyridazinacycloundecaphane-4-yl)-2-methylcyclopropane-1-carboxamide], the IC50 in the test with SW480 (G12V) (Homo sapiens) is 37 nM; in the test with AsPC-1 (G12D) (Homo sapiens, ASPC1), 56 nM.

For `CCn1c(-c2cc(C#CCN(C)C3CCOCC3)cnc2C(C)OC)c2c3cc(ccc31)-c1csc(n1)CC(NC(=O)C1C(C)C1C)C(=O)N1CCCC(N1)C(=O)OCC(C)(C)C2` [Example 36, (1r,2R,3S)-N-((6^3S,4S,Z)-1^1-ethyl-1^2-(2-((S)-1-methoxyethyl)-5-(3-(methyl(tetrahydro-2H-pyran-4-yl)amino)prop-1-yn-1-yl)pyridin-3-yl)-10,10-dimethyl-5,7-dioxo-6^1,6^2,6^3,6^4,6^5,6^6-hexahydro-1^1H-8-oxa-2(4,2)-thiazola-1(5,3)-indola-6(1,3)-pyridazinacycloundecaphane-4-yl)-2,3-dimethylcyclopropane-1-carboxamide], the IC50 worked out at 0.54 nM in the test with SW480 (G12V) and 0.73 nM with AsPC-1 (G12D).

As for `CCn1c(-c2cc(C#CCN3CCN(C(C)=O)CC3)cnc2C(C)OC)c2c3cc(ccc31)-c1csc(n1)CC(NC(=O)C1C(C)C1C)C(=O)N1CCCC(N1)C(=O)OCC(C)(C)C2` [Example 41, (1r,2R,3S)-N-((6^3S,4S,Z)-1^2-(5-(3-(4-acetylpiperazin-1-yl)prop-1-yn-1-yl)-2-((S)-1-methoxyethyl)pyridin-3-yl)-1^1-ethyl-10,10-dimethyl-5,7-dioxo-6^1,6^2,6^3,6^4,6^5,6^6-hexahydro-1^1H-8-oxa-2(4,2)-thiazola-1(5,3)-indola-6(1,3)-pyridazinacycloundecaphane-4-yl)-2,3-dimethylcyclopropane-1-carboxamide], the concentration for half-maximal inhibition (IC50) was found to be 0.65 nM with SW480 (G12V) and 0.56 nM in the test with AsPC-1 (G12D).

As for `CCn1c(-c2cc(C#Cc3cnc4c(c3)CN(C)C4)cnc2[C@H](C)OC)c2c3cc(ccc31)-c1csc(n1)C[C@H](NC(=O)[C@H]1C[C@@H]1C)C(=O)N1CCC[C@H](N1)C(=O)OCC(C)(C)C2` [Example 46, (1S,2S)-N-((6^3S,4S,Z)-1^1-ethyl-1^2-(2-((S)-1-methoxyethyl)-5-((6-methyl-6,7-dihydro-5H-pyrrolo[3,4-b]pyridin-3-yl)ethynyl)pyridin-3-yl)-10,10-dimethyl-5,7-dioxo-6^1,6^2,6^3,6^4,6^5,6^6-hexahydro-1^1H-8-oxa-2(4,2)-thiazola-1(5,3)-indola-6(1,3)-pyridazinacycloundecaphane-4-yl)-2-methylcyclopropane-1-carboxamide], the IC50 was 11.4 nM with SW480 (G12V) and 19.5 nM in the test with AsPC-1 (G12D).

`CCn1c(-c2cc(C#Cc3cccc4ccn(C)c34)cnc2[C@H](C)OC)c2c3cc(ccc31)-c1csc(n1)C[C@H](NC(=O)[C@H]1C[C@@H]1C)C(=O)N1CCC[C@H](N1)C(=O)OCC(C)(C)C2` [Example 47, (1S,2S)-N-((6^3S,4S,Z)-1^1-ethyl-1^2-(2-((S)-1-methoxyethyl)-5-((1-methyl-1H-indol-7-yl)ethynyl)pyridin-3-yl)-10,10-dimethyl-5,7-dioxo-6^1,6^2,6^3,6^4,6^5,6^6-hexahydro-1^1H-8-oxa-2(4,2)-thiazola-1(5,3)-indola-6(1,3)-pyridazinacycloundecaphane-4-yl)-2-methylcyclopropane-1-carboxamide]: the IC50 was 116 nM with SW480 (G12V) (Homo sapiens) and 456 nM with AsPC-1 (G12D) (Homo sapiens, ASPC1).

Regarding `CCn1c(-c2cc(C#CC3CCNCC3)cnc2[C@H](C)OC)c2c3cc(ccc31)-c1csc(n1)C[C@H](NC(=O)[C@H]1C[C@@H]1C)C(=O)N1CCC[C@H](N1)C(=O)OCC(C)(C)C2` [Example 48, (1S,2S)-N-((6^3S,4S,Z)-1^1-ethyl-1^2-(2-((S)-1-methoxyethyl)-5-(piperidin-4-ylethynyl)pyridin-3-yl)-10,10-dimethyl-5,7-dioxo-6^1,6^2,6^3,6^4,6^5,6^6-hexahydro-1^1H-8-oxa-2(4,2)-thiazola-1(5,3)-indola-6(1,3)-pyridazinacycloundecaphane-4-yl)-2-methylcyclopropane-1-carboxamide], the IC50 is 1.7 nM in the test on SW480 (G12V) and 5.4 nM in the test with AsPC-1 (G12D).

In the case of `CCn1c(-c2cc(C#CCN3CCP(C)(=O)CC3)cnc2[C@H](C)OC)c2c3cc(ccc31)-c1csc(n1)C[C@H](NC(=O)[C@H]1C[C@@H]1C)C(=O)N1CCC[C@H](N1)C(=O)OCC(C)(C)C2` [Example 49, (1S,2S)-N-((6^3S,4S,Z)-1^1-ethyl-1^2-(2-((S)-1-methoxyethyl)-5-(3-(4-methyl-4-oxido-1,4-azaphosphinan-1-yl)prop-1-yn-1-yl)pyridin-3-yl)-10,10-dimethyl-5,7-dioxo-6^1,6^2,6^3,6^4,6^5,6^6-hexahydro-1^1H-8-oxa-2(4,2)-thiazola-1(5,3)-indola-6(1,3)-pyridazinacycloundecaphane-4-yl)-2-methylcyclopropane-1-carboxamide], the IC50 in the test on SW480 (G12V) turned out to be 9.2 nM; in the test on AsPC-1 (G12D), 7.5 nM.
